Measurements reported in US20240316020A1, “Novel Pyridine Compounds” (ICAGEN, LLC, priority 2021, published 2024).

Columns and labels:
human Kv7.2 = human Kv7.2 (Homo sapiens (Human), UniProt O43526); experiment: SyncroPatch 384 electrophysiology, CHO cells stably expressing human Kv7.2; assay type: cell-based
Protocol: (§1) The potency of Kv7 potentiators was determined using the SyncroPatch 384 (Nanion) high throughput electrophysiology platform.
(§2) CHO cells stably expressing either human Kv7.2, Kv7.4 or Kv7.5/7.3 under a constitutive CMV promoter were used for these studies. Cells were maintained in F12 Hams+1 mM L-glutamine (Hyclone) supplemented with 10% FBS (Sigma), 0.3×NEAA (Non-essential Gamino-acids) and 400 ug/ml G418 at 37° C. in 5% CO2. Cells were cultured in T-225 flasks (Nunc) for 2-3 days to reach 85-95% confluence prior to electrophysiological recording.
(§3) Earle's balanced salt solution (in mM): 135 NaCl, 5.4 KCl, 5 Glucose, 2 CaCl2, 1 MgCl2, 5 HEPES, pH 7.4. Seal enhancer solution (in mM): 90 NaCl, 3 KCl, 35 CaCl2, 10 MgCl2, 10 HEPES, pH 7.4. Extracellular recording solution (in mM): 71 NaCl, 70 NMDG, 13 KCl, 5 Glucose, 2 CaCl2, 1 MgCl2, 10 HEPES, pH 7.4. Intracellular recording solution (in mM): 130 KF, 20 KCl, 4 EGTA, 10 HEPES, 2 EDTA, 0.01 Escin, pH 7.2.
(§4) Cells were harvested for electrophysiological recording upon reaching appropriate confluence. Cells were first washed in DPBS (Hyclone, Cat #SH30028.03) and then 2 ml of Accutase (MP Biomedicals #1000449) was added at 28° C. until ˜90% of cells were suspended. F12 HAM's media+1 mM L-glutamine (Hyclone, SH30026.02) was then added to the flask to dilute the accutase. Cells were then triturated until a single cell suspension was achieved, a cell count was performed, and cells were centrifuged for 2 min. at 1,000 rpm. Media was then aspirated, and cells were resuspended in Earle's balanced salt solution to a concentration of 0.75×10^6 cells/ml and allowed to recover for 25 min at 10° C.
(§5) At the beginning of each assay, 20 μl of cell suspension was dispensed into each well of a multi-hole 384-well SyncroPatch chip by the onboard pipettor. Cell sealing was initiated, and seal enhancer solution was added to facilitate seal formation. Upon completion of sealing, cells were washed 3 times with extracellular recording solution and the assay voltage protocol was started. Human Kv7.2, Kv7.4 or Kv7.5/7.3 channels were evaluated using a voltage protocol in which cells were voltage-clamped at a holding potential of −60 mV. Potassium currents were continuously activated with a series of three voltage steps to −30 mV for 3 seconds, 40 mV for 1 second and −90 mV for 4 seconds with 12 seconds between successive voltage sweeps. Potassium currents were measured from the −90 mV repolarizing step. Baseline current was assessed for 3.5 minutes prior to the addition of 5.6 μM zinc pyrithione (1 μM for Kv7.4). Kv7.2, Kv7.4 or Kv7.5/7.3 current in the presence of zinc pyrithione was acquired over five minutes to allow channels to reach steady state activity prior to addition of test agents. Channel activity was monitored for three minutes preceding the addition of 30 μM ML-213 (3 minutes) to achieve maximum activation.
(§6) Data were collected on the SyncroPatch platform using PatchControl software (Nanion) and processed and analyzed using DataControl Software (Nanion). Percent activation was calculated from potassium current as follows: The average current for the 5 sweeps in the presence of zinc pyrithione immediately preceding test agent addition was taken as the ‘control’ data. Likewise, the average potassium current in the presence of test agents 5 sweeps immediately preceding addition of 30 μM ML-213 was determined for ‘drug’ data. The average potassium current 5 sweeps immediately prior to addition of 150 mM TEA+10 μM XE-991 was determined for ‘max activation’ data while average currents from 5 sweeps immediately following addition of TEA was determined for ‘max inhibition’ data. Percent activation for each of the 384-wells of a sealchip was calculated as ((‘drug’−‘max inhibition’)/(‘max activation’−‘max inhibition’))*100 with Pipeline Pilot (Accelrys). […]

[1] = Human liver microsomal clearance; assay type: in vitro ADME; conditions: both sexes, liver microsomes, Table B, 0.5 μM compound, 0.25 mg/mL microsomes, NADPH, 37° C., read-out: Human liver microsomal intrinsic clearance CLint
Protocol: Pooled mixed gender human liver microsomes were purchased from BioIVT at a concentration of 20 mg protein/mL and stored at −80° C. Incubations were conducted in V-bottomed 350 μL polypropylene 96-well plates. Compounds were diluted in phosphate buffer (final concentrations 0.5 μM compound, 0.5% DMSO) and mixed with diluted liver microsomes (fc 0.25 mg/mL). This mixture was aliquoted onto the assay plate (six wells per compound) and pre-warmed at 37° C. for ten minutes. Addition of NADPH (fc 0.5 mM, final incubation volume 100 μL) to each well started the time course. Reactions were stopped at 0.5, 3, 5, 10, 20 & 30 minutes by addition of 150 μL acetonitrile containing internal standard (IS; 0.125 μg/mL daidzein) and stopped samples were removed to a clean polypropylene plate. At the end of the assay the plate was refrigerated for an hour and then centrifuged at 3000 rpm for 10 minutes at 4° C. A sample of the supernatant was removed to a fresh plate and diluted 10-fold with 50:50 acetonitrile:water, then heat sealed. Analysis was by liquid chromatography coupled with tandem mass spectrometry (LC-MS/MS) for analyte and IS levels. Ratios of the analyte and IS peak areas were generated for results calculation (IS ratio). Dextromethorphan and verapamil were included in each experiment as controls for high clearance compounds. IS ratio data were converted into natural log values which were plotted against time and a linear regression fit applied. The slope of the line was returned and converted into the elimination constant (kel) by multiplying by −1. The elimination constant was used to calculate the in vitro CLint: in vitro CLint (μL/min/mg protein) is kel* (1000/protein conc in mg/mL).

human Kv7.5/7.3 = human Kv7.5/7.3 (Homo sapiens (Human), UniProt O43525+Q9NR82); experiment: SyncroPatch 384 electrophysiology, CHO cells stably expressing human Kv7.5/7.3; assay type: cell-based; conditions: Table A; for Kv7.5/7.3/Kv7.2 selectivity ratio: Kv7.5/7.3 EC50 over Kv7.2 EC50
Protocol: as §1, §2, §3, §4, §5, §6

[2] = Table 1, CHO cells, potassium current at -90 mV step, in presence of zinc pyrithione

human Kv7.5/7.3, sequence (Q9NR82 whole entry): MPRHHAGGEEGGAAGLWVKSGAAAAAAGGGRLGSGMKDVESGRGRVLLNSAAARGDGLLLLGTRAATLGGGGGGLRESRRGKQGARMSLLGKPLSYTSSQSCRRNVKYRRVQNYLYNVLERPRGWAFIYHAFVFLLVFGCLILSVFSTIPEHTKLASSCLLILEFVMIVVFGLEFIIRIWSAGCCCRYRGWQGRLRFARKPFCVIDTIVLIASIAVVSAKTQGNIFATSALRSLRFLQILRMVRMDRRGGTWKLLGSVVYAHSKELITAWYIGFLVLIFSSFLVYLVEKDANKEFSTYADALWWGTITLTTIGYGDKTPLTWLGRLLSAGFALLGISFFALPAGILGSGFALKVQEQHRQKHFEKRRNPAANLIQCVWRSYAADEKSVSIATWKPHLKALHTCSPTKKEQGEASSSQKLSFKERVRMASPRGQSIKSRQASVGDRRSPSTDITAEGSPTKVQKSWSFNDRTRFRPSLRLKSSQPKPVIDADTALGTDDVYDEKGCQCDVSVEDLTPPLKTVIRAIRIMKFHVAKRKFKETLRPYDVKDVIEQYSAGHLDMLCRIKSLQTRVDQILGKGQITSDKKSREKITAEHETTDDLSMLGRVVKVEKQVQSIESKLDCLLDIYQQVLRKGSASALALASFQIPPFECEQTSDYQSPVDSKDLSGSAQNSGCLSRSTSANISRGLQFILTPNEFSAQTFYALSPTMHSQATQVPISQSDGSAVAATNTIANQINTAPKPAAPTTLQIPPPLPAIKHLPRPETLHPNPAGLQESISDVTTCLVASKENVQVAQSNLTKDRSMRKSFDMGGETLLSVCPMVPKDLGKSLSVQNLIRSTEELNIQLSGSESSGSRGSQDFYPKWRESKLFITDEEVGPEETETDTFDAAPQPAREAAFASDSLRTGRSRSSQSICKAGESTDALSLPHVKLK
human Kv7.5/7.3, sequence (O43525 whole entry): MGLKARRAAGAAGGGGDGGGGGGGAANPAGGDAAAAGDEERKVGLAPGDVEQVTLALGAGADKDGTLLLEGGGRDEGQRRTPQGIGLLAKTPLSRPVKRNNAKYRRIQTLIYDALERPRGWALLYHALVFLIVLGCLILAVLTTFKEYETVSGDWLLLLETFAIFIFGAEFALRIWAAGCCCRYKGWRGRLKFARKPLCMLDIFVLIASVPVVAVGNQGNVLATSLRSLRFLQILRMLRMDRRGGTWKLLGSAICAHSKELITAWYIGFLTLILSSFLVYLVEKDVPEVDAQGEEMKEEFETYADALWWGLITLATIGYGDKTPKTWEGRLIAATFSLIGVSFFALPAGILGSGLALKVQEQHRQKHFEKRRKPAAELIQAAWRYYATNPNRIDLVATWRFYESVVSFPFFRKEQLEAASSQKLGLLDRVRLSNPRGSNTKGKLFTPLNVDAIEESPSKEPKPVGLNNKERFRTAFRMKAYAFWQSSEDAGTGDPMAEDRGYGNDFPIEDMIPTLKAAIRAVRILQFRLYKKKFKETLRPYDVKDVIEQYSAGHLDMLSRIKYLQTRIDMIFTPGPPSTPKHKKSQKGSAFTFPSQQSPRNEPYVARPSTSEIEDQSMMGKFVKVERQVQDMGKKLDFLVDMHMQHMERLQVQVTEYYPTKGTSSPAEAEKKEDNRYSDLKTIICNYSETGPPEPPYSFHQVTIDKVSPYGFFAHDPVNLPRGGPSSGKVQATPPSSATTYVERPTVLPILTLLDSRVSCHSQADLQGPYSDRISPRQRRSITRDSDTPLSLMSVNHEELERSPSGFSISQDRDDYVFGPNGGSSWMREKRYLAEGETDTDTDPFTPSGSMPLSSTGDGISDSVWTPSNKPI
human Kv7.2, sequence (O43526 whole entry): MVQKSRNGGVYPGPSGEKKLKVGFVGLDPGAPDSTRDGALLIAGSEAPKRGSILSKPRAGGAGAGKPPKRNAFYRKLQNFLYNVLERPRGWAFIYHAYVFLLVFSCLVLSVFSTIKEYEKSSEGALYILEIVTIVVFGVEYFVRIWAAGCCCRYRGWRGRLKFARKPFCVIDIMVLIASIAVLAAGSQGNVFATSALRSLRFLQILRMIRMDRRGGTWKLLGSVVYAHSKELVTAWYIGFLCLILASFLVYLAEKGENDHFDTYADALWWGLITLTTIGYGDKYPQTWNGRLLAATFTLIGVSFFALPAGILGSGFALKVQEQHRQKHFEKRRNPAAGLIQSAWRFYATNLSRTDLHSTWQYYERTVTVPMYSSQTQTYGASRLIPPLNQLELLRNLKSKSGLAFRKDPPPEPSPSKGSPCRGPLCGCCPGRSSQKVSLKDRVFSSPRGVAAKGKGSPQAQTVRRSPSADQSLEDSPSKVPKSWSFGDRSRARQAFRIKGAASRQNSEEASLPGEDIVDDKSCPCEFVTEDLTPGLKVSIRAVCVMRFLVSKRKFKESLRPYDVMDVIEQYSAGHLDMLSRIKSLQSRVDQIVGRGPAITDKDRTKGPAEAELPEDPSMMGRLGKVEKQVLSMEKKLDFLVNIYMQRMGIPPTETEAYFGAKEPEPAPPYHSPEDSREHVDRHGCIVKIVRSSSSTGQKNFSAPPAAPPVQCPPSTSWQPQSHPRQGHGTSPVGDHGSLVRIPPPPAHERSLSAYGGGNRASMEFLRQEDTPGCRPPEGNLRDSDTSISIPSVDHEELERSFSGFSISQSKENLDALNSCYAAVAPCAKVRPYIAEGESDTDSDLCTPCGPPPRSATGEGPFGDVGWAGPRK

SMILES	EC50 (human Kv7.2; [2]) [µM]	microsomal CLint at 0.5 μM [1] [µL/min/mg]	EC50 (human Kv7.2; Table A) [µM]	EC50 (human Kv7.5/7.3) [µM]	Kv7.5/7.3/Kv7.2 selectivity ratio (human Kv7.5/7.3)
O=C(NCc1ccnc(OC(F)F)c1)N[C@H]1CC2(CCC2)[C@H]1O (racemic) [Example 26, 1-[[2-(difluoromethoxy)pyridin-4-yl]methyl]-3-[rac-(2R,3S)-3-hydroxyspiro[3.3]heptant-2-yl]urea]	0.44	11.5			
O=C(NCc1ccnc(-n2cccn2)c1)NC1CCOC2(CCCC2)C1 (centres unmarked) [Example 2, 1-(6-oxaspiro[4.5]decan-9-yl)-3-[(2-pyrazol-1-ylpyridin-4-yl)methyl]urea]	8.49				
O=C(NCc1ccnc(OC(F)F)c1)NC1COC2(CCCC2)C1 (centres unmarked) [Example 3, 1-[[2-(difluoromethoxy)pyridin-4-yl]methyl]-3-(1-oxaspiro[4.4]nonan-3-yl)urea]	0.5				
O=C(NCc1ccnc(OC(F)F)c1)NC1CC2(CCC2)C1 [Example 4, 1-[[2-(difluoromethoxy)pyridin-4-yl]methyl]-3-spiro[3.3]heptan-2-ylurea]	0.02				
CC(F)(F)COc1cc(CNC(=O)NC2CC3(CCC3)C2)ccn1 [Example 5, 1-[[2-(2,2-difluoropropoxy)pyridin-4-yl]methyl]-3-spiro[3.3]heptan-2-ylurea]	0.02				
CC(F)COc1cc(CNC(=O)NC2CC3(CCC3)C2)ccn1 (centres unmarked) [Example 6, 1-[[2-(2-fluoropropoxy)pyridin-4-yl]methyl]-3-spiro[3.3]heptan-2-ylurea]	0.06				
O=C(NCc1ccnc(OCC2CC2)c1)NC1CC2(CCC2)C1 [Example 7, 1-[[2-(cyclopropylmethoxy)pyridin-4-yl]methyl]-3-spiro[3.3]heptan-2-ylurea]	0.05				
O=C(NCc1ccnc(OC(F)F)c1)NC1CC2(CC2)C1 [Example 8, 1-[[2-(difluoromethoxy)pyridin-4-yl]methyl]-3-spiro[2.3]hexan-5-ylurea]	0.06	5.2			
CC(F)(F)c1cc(CNC(=O)NC2CC3(CCC3)C2)ccn1 [Example 9, 1-[[2-(1,1-difluoroethyl)pyridin-4-yl]methyl]-3-spiro[3.3]heptan-2-ylurea]	0.19	17.6			
O=C(NCc1ccnc(C(F)(F)F)c1)NC1CC2(CCC2)C1 [Example 10]	0.19				
O=C(NCc1ccnc(OC(F)F)c1)NC1CCC2(CCC2)C1 (centres unmarked) [Example 11, 1-[[2-(difluoromethoxy)pyridin-4-yl]methyl]-3-spiro[3.4]octan-7-ylurea]	0.02				
O=C(NCc1ccnc(OCC(F)(F)F)c1)NC1CC2(CC2)C1 [Example 12, 1-spiro[2.3]hexan-5-yl-3-[[2-(2,2,2-trifluoroethoxy)pyridin-4-yl]methyl]urea]	0.17	15.2			
O=C(NC1CC2(CCC2)C1)NC(CO)c1ccnc(OCC(F)(F)F)c1 (centres unmarked) [Example 13, 1-[2-hydroxy-1-[2-(2,2,2-trifluoroethoxy)pyridin-4-yl]ethyl]-3-spiro[3.3]heptan-2-ylurea]	0.07				
O=C(NCc1ccnc(OC(F)F)c1)NC1CC2(C1)CC2(F)F (centres unmarked) [Example 15, 1-[[2-(difluoromethoxy)pyridin-4-yl]methyl]-3-(2,2-difluorospiro[2.3]hexan-5-yl)urea]	3.1	11.3			
O=C(NCc1ccnc(OC(F)F)c1)NC1CC2(CC(F)C2)C1 (centres unmarked) [Example 16, 1-[[2-(difluoromethoxy)pyridin-4-yl]methyl]-3-(2-fluorospiro[3.3]heptan-6-yl)urea]	0.15	10.7			
O=C(NCc1ccnc(OC(F)F)c1)NC1(CO)CC2(CCC2)C1 [Example 18, 1-[[2-(difluoromethoxy)pyridin-4-yl]methyl]-3-[2-(hydroxymethyl)spiro[3.3]heptan-2-yl]urea]	0.41				
O=C(NCc1ccnc(OC(F)F)c1)NC1CCC2(C1)CC2(F)F (centres unmarked) [Example 19, 1-[[2-(difluoromethoxy)pyridin-4-yl]methyl]-3-(2,2-difluorospiro[2.4]heptan-6-yl)urea]	0.35		0.35	> 30	>86
O=C(NCc1ccnc(OC(F)F)c1)NC1COC12CCCCC2 (centres unmarked) [Example 20, 1-[[2-(difluoromethoxy)pyridin-4-yl]methyl]-3-(1-oxaspiro[3.5]nonan-3-yl)urea]	8.43				
O=C(NCc1ccnc(OC(F)F)c1)NC1COC2(CCC2)C1 (centres unmarked) [Example 22, 1-[[2-(difluoromethoxy)pyridin-4-yl]methyl]-3-(5-oxaspiro[3.4]octan-7-yl)urea]	1.44	10.6			
O=C(NCc1ccnc(OC(F)F)c1)NC1CC12CCC2 (centres unmarked) [Example 23, 1-[[2-(difluoromethoxy)pyridin-4-yl]methyl]-3-spiro[2.3]hexan-2-ylurea]	1.94		1.94	> 30	>15
O=C(NCc1ccnc(OC(F)F)c1)NC1C(F)(F)C12CCC2 (centres unmarked) [Example 24, 1-[[2-(difluoromethoxy)pyridin-4-yl]methyl]-3-(2,2-difluorospiro[2.3]hexan-1-yl)urea]	0.34		0.34	> 30	>89
O=C(NCc1ccnc(OC(F)F)c1)N[C@@H]1CC2(CCC2)[C@@H]1O [Example 28, 1-[[2-(difluoromethoxy)pyridin-4-yl]methyl]-3-[(2R,3S)-3-hydroxyspiro[3.3]heptan-2-yl]urea]	0.5		0.5	> 30	>60
O=C(NCc1ccnc(OCC(F)CF)c1)NC1CC2(CCC2)C1 (centres unmarked) [Example 29, 1-[[2-(2,3-difluoropropoxy)pyridin-4-yl]methyl]-3-spiro[3.3]heptan-2-ylurea]	0.1				
O=C(NCc1ccnc(OC(F)F)c1)NC1COC2(CCCCC2)C1 (centres unmarked) [Example 30, 1-[[2-(difluoromethoxy)pyridin-4-yl]methyl]-3-(1-oxaspiro[4.5]decan-3-yl)urea]	0.45				
O=C(NCc1ccnc(OC(F)F)c1)NC1CCC2(CCC2)OC1 (centres unmarked) [Example 32, 1-[[2-(difluoromethoxy)pyridin-4-yl]methyl]-3-(5-oxaspiro[3.5]nonan-7-yl)urea]	0.55				
